Experimental data reported in PMC9081329, “Pharmacokinetics, Mass Balance, Excretion, and Tissue Distribution of Plasmalogen Precursor PPI-1011” (Frontiers in Cell and Developmental Biology, 2022).

Experiment: Single dose tissue distribution study (QWBA, LSC of blood and plasma)
Assay type: in vivo, Sprague-Dawley rats
Procedure: Six male rats were administered a single oral dose of [^14C]PPI-1011 at 100 mg/kg (200 μCi/kg) and one rat was sacrificed at each of the following time points after the administration of the dose: 8, 12, 18, 24, 48, or 168 h. Terminal blood was collected by cardiac puncture directly into tubes with K2EDTA, an aliquot was stored at 4°C until LSC was performed for radioactivity, while the remaining blood was processed to plasma and stored at −20°C until LSC. Following blood collection, the carcasses were frozen in a cold bath with hexanes and dry ice for at least 8 min and then dried and stored at −70°C for at least 5 h. The carcasses were transferred to a −20°C freezer for at least 12 h before embedding.
QWBA was used to determine radioactivity concentrations in the caecum (contents and mucosa), large intestine (contents and mucosa), small intestine (contents and mucosa), stomach (contents and mucosa), brain, choroid plexus, spinal cord, bone, skin, adrenal gland, pineal body, pituitary gland, thyroid gland, liver, kidney (cortex, medulla and whole kidney), urinary bladder (contents and wall), brown fat, white fat, eye (lens, uveal tract and whole eye), epididymis, prostate gland, testis, ovary, uterus, lung, exorbital lachrymal gland, Harderian gland, pancreas, salivary gland, skeletal muscle, myocardium, cardiac blood, bone marrow, lymph node, spleen, and thymus. As well, LSC was used to determine the total radioactivity in the whole blood and plasma.
The whole-body cryosectioning technique described by ([Ullberg, 1977]) was the basis for embedding and cryosectioning the rats assigned to this study. Each frozen carcass was shaved, and then the limbs and tail were removed prior to embedding. Chilled (4°C) 3% CMC (low viscosity) was utilized to provide a firm support of reinforced ice around each rat and for a secure attachment to the microtome stage. Upon thorough freezing of the embedding medium surrounding each rat, the frozen CMC block was removed from the freezing bath and four 3/8 inch holes were drilled into the block. One cryosection quality control standard (CQCS) was prepared with a known amount of radioactivity and at least 1 ml aliquots were added to each of the four drilled holes. CQCS data were utilized to evaluate the overall performance of the QWBA assay.
Each frozen rat was sagittally trimmed (50–100 μm) at −20°C until exposure of a few target tissues employing a Leica Cryomacrocut heavy-duty microtome (Leica Microsystems Inc.,). Disposable stainless steel Feather type H45L knives (Feather Safety Razor Co., Ltd.) were utilized for trimming and sectioning each frozen rat. Several thinner sections (50 μm) were discarded prior to obtaining multiple 50 μm sections at various cryosectioning levels for QWBA analysis. Upon the collection of at least 60 target tissues in multiple cryosectioning levels, the cryosections were kept in the Cryomacrocut cryochamber for a minimum of 18 h for dehydration depending upon the number of cryosections within the cryochamber. After dehydration was complete, the cryosections were transferred to ambient temperature for processing. Mounted whole-body cryosections and a set of 15 standards were sandwiched between a standard phosphor screen and an exposure cassette. All cryosections were exposed to the phosphor screen for 4-days in a cabinet protected with lead prior to scanning using a Typhoon PhosphorImager (Cytiva). MCID™ Analysis software (InterFocus Ltd.) was utilized to generate a calibration curve of the STD nominal concentrations (nCi/g) versus PhosphorImager response (counts/μm^2 minus background) by weighted (1/x) linear regression analysis ([Potchoiba et al., 1995]; [Potchoiba et al., 1998]). The linear regression curve was then utilized to determine the concentration (nCi/g) of total radioactivity in whole-body tissues and blood. Radioactivity concentrations were expressed as μg Eq/g based on the specific activity of the compound in the final dose formulations. […]

[1] = 24 h post single oral 100 mg/kg
[2] = 48 h post single oral 100 mg/kg

CC/C=C\C/C=C\C/C=C\C/C=C\C/C=C\C/C=C\CCC(=O)O[C@H](CO[14CH2]CCCCCCCCCCCCCCC)COC(=O)CCCCC1CCSS1 (stereo partly shown) [[^14C]PPI-1011]
Radioactivity concentration, Choroid Plexus [1]: 9.85 μg equivalents/g
Radioactivity concentration, Colliculus [1]: 2.06 μg equivalents/g
Radioactivity concentration, Diaphragm [1]: 37.4 μg equivalents/g
Radioactivity concentration, Epididymis [1]: 40.4 μg equivalents/g
Radioactivity concentration, Esophagus [1]: 9.46 μg equivalents/g
Radioactivity concentration, Exorbital Lacrimal Gland [1]: 9.66 μg equivalents/g
Radioactivity concentration, Gastric Mucosa [1]: 48.7 μg equivalents/g
Radioactivity concentration, Harderian Gland [1]: 10.5 μg equivalents/g
Radioactivity concentration, Intra-Orbital Lacrimal Gland [1]: 7.56 μg equivalents/g
Radioactivity concentration, Kidney [1]: 24.7 μg equivalents/g
Radioactivity concentration, Large Intestines [1]: 180 μg equivalents/g
Radioactivity concentration, Liver [1]: 73.4 μg equivalents/g
Radioactivity concentration, Lung [1]: 30.2 μg equivalents/g
Radioactivity concentration, Lymph Node [1]: 17.4 μg equivalents/g
Radioactivity concentration, Medulla Oblongata [1]: 1.98 μg equivalents/g
Radioactivity concentration, Muscle [1]: 7.57 μg equivalents/g
Radioactivity concentration, Myocardium [1]: 31.0 μg equivalents/g
Radioactivity concentration, Nasal Turbinates [1]: 4.81 μg equivalents/g
Radioactivity concentration, Ocular - Uveal Tract [1]: 4.27 μg equivalents/g
Radioactivity concentration, Ocular - Whole Eye [1]: 1.14 μg equivalents/g
Radioactivity concentration, Olfactory Bulb [1]: 2.07 μg equivalents/g
Radioactivity concentration, Pancreas [1]: 24.8 μg equivalents/g
Radioactivity concentration, Parotid Gland [1]: 20.5 μg equivalents/g
Radioactivity concentration, Pineal Gland [1]: 10.8 μg equivalents/g
Radioactivity concentration, Pituitary Gland [1]: 16.7 μg equivalents/g
Radioactivity concentration, Preputial Gland [1]: 112 μg equivalents/g
Radioactivity concentration, Prostate [1]: 56.7 μg equivalents/g
Radioactivity concentration, Renal Cortex [1]: 26.8 μg equivalents/g
Radioactivity concentration, Renal Medulla [1]: 25.8 μg equivalents/g
Radioactivity concentration, Salivary Gland [1]: 21.3 μg equivalents/g
Radioactivity concentration, Seminal Vesicles [1]: 5.38 μg equivalents/g
Radioactivity concentration, Skin - Non-Pigmented [1]: 9.26 μg equivalents/g
Radioactivity concentration, Small Intestines [1]: 247 μg equivalents/g
Radioactivity concentration, Spinal Cord [1]: 1.75 μg equivalents/g
Radioactivity concentration, Spleen [1]: 46.3 μg equivalents/g
Radioactivity concentration, Stomach [1]: 10.8 μg equivalents/g
Radioactivity concentration, Testis [1]: 4.31 μg equivalents/g
Radioactivity concentration, Thalamus [1]: 1.71 μg equivalents/g
Radioactivity concentration, Thymus [1]: 9.79 μg equivalents/g
Radioactivity concentration, Thyroid [1]: 27.7 μg equivalents/g
Radioactivity concentration, Whole Brain [1]: 1.95 μg equivalents/g
Radioactivity concentration, Adipose - Brown [2]: 132 μg equivalents/g
Radioactivity concentration, Adipose - Brown (Vessel Wall) [2]: 98.6 μg equivalents/g
Radioactivity concentration, Adipose - Subcutaneous [2]: 82.1 μg equivalents/g
Radioactivity concentration, Adipose - Visceral [2]: 111 μg equivalents/g
Radioactivity concentration, Adrenal Gland [2]: 201 μg equivalents/g
Radioactivity concentration, Bladder Wall [2]: 10.7 μg equivalents/g
Radioactivity concentration, Blood - QWBA [2]: 4.19 μg equivalents/g
Radioactivity concentration, Bone Marrow [2]: 15.7 μg equivalents/g
Radioactivity concentration, Bone Surface [2]: 0.508 μg equivalents/g
Radioactivity concentration, Cecum [2]: 34.3 μg equivalents/g
Radioactivity concentration, Cerebellum [2]: 2.60 μg equivalents/g
Radioactivity concentration, Cerebrum [2]: 2.23 μg equivalents/g
Radioactivity concentration, Choroid Plexus [2]: 14.4 μg equivalents/g
Radioactivity concentration, Colliculus [2]: 3.30 μg equivalents/g
Radioactivity concentration, Diaphragm [2]: 23.0 μg equivalents/g
Radioactivity concentration, Epididymis [2]: 6.81 μg equivalents/g
Radioactivity concentration, Esophagus [2]: 10.8 μg equivalents/g
Radioactivity concentration, Exorbital Lacrimal Gland [2]: 6.13 μg equivalents/g
Radioactivity concentration, Gastric Mucosa [2]: 37.5 μg equivalents/g
Radioactivity concentration, Harderian Gland [2]: 11.1 μg equivalents/g
Radioactivity concentration, Intra-Orbital Lacrimal Gland [2]: 6.64 μg equivalents/g
Radioactivity concentration, Kidney [2]: 24.6 μg equivalents/g
Radioactivity concentration, Large Intestines [2]: 19.1 μg equivalents/g
Radioactivity concentration, Liver [2]: 40.0 μg equivalents/g
Radioactivity concentration, Lung [2]: 22.9 μg equivalents/g
Radioactivity concentration, Lymph Node [2]: 20.0 μg equivalents/g
Radioactivity concentration, Medulla Oblongata [2]: 2.45 μg equivalents/g
Radioactivity concentration, Muscle [2]: 8.42 μg equivalents/g
Radioactivity concentration, Myocardium [2]: 26.6 μg equivalents/g
Radioactivity concentration, Nasal Turbinates [2]: 5.03 μg equivalents/g
Radioactivity concentration, Ocular - Uveal Tract [2]: 4.78 μg equivalents/g
Radioactivity concentration, Ocular - Whole Eye [2]: 1.30 μg equivalents/g
Radioactivity concentration, Olfactory Bulb [2]: 2.01 μg equivalents/g
Radioactivity concentration, Pancreas [2]: 28.0 μg equivalents/g
Radioactivity concentration, Parotid Gland [2]: 20.9 μg equivalents/g
Radioactivity concentration, Pineal Gland [2]: 16.4 μg equivalents/g
Radioactivity concentration, Pituitary Gland [2]: 19.2 μg equivalents/g
Radioactivity concentration, Preputial Gland [2]: 76.5 μg equivalents/g
Radioactivity concentration, Prostate [2]: 7.15 μg equivalents/g
Radioactivity concentration, Renal Cortex [2]: 24.3 μg equivalents/g
Radioactivity concentration, Renal Medulla [2]: 22.7 μg equivalents/g
Radioactivity concentration, Salivary Gland [2]: 22.9 μg equivalents/g
Radioactivity concentration, Seminal Vesicles [2]: 9.12 μg equivalents/g
Radioactivity concentration, Skin - Non-Pigmented [2]: 13.4 μg equivalents/g
